Test results as given in PMC7560342, “In Vitro and In Vivo Evaluation of the Toxic Effects of Dodecylguanidine Hydrochloride” (Toxics, 2020).
In brackets after ≈: the same amount, converted by molar mass.

How the values were obtained:
[1] = system: A549 cells; assay: cells; format: cell-based, Human; details: 24 h exposure, WST assay; for IC50: Homo sapiens, read-out: IC50 (half inhibitory concentration by cell viability assay)
Method: Human adenocarcinomic alveolar epithelial (A549) cells were obtained from the Korea Cell Line Bank (Seoul, Korea). Cells were grown in RPMI 1640 medium (Thermo Fisher Scientific, Waltham, MA, USA), containing 10% heat-inactivated fetal bovine serum (Thermo Fisher Scientific, Waltham, MA, USA) and 1% penicillin-streptomycin (Thermo Fisher Scientific, Waltham, MA, USA) under standard cell culture conditions (37 °C, 5% CO2, and 90% humidity).
A549 cells (1 × 10^4 cells) were incubated in 96-well plates overnight, and various concentrations (1, 10, 100, 1000, and 5000 μg/mL) of the eight selected chemicals were added to the cell culture medium. After 24 h of incubation, cell morphology was observed by optical microscopy, and cell viability was evaluated using EZ-Cytox kit (DoGenBio, Seoul, Korea) by quantifying purple formazan crystals. The membrane integrity was examined using an EZ-lactate dehydrogenase (LDH) kit (DoGenBio, Seoul, Korea) to measure the LDH level released from the cytosol into the culture medium. Absorbance was measured using a microplate reader (Tecan, Salzburg, Austria) at a wavelength of 450 nm.

[2] = system: rat; design: method as in earlier work; details: 1 h; cited from earlier work
[3] = system: rabbit; design: method as in earlier work; details: cited from earlier work
[4] = system: rat; design: method as in earlier work; details: cited from earlier work

N#CNC(=N)N [CG, Cyanoguanidine]
IC50 [1]: > 5000 mg/L

N=C(N)N.N=C(N)N.O=C(O)O [GC, Guanidine carbonate]
IC50 (half inhibitory concentration by cell viability assay) [1]: 1822 mg/L

Cl.N=C(N)N [GH, Guanidine monohydrochloride]
IC50 (half inhibitory concentration by cell viability assay) [1]: 2373 mg/L

N=C(N)N.O=[N+]([O-])O [GN, Guanidine mononitrate]
IC50 (half inhibitory concentration by cell viability assay) [1]: 3417 mg/L

N=C(N)N.NS(=O)(=O)O [GS, Guanidine sulfamate]
IC50 (half inhibitory concentration by cell viability assay) [1]: 2722 mg/L

CN(C)C(=N)N(C)C [TMG, 1,1,3,3-Tetramethylguanidine]
IC50 [1]: 1090 mg/L (≈ 9.47 mM)

CCCCCCCCCCCCNC(=N)N [dodine, dodecylguanidine acetate]
Inhalation toxicity LC50 [2]: 1.05 mg/L
Dermal toxicity LD50 [3]: > 2000 mg/kg
Acute oral toxicity LD50 [4]: 1931 mg/kg
